Experimental data published in paper PMC3220491 (The Journal of Biological Chemistry, 2011).
Substitutions are numbered along the chain they refer to.

Tests used:
Assay in all cases: SAT activity, acetyl-CoA decrease at […] nm
AtSAT-c [1] = biological target: T1, AtSAT-c (Arabidopsis thaliana, UniProt Q42538, C268P/G270A); type: biochemical
T1 sequence (Q42538 1-312 C268P/G270A): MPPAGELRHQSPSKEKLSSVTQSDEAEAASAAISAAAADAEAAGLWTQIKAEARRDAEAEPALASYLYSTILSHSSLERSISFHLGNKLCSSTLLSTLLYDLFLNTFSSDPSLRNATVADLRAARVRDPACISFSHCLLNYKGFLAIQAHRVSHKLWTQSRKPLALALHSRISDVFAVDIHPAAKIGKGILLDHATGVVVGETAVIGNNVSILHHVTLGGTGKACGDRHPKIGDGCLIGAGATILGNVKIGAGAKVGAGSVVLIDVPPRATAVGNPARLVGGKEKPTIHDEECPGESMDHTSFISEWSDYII

AtSAT-c [2] = biological target: T2, AtSAT-c (Arabidopsis thaliana, UniProt Q42538); type: biochemical
T2 sequence (Q42538 1-312): T1 sequence (Q42538 1-312 C268P/G270A) with P268C, A270G

Tg-N/At-C = type: biochemical, Noccaea goesingensis; Arabidopsis thaliana; conditions: 1 mM L-serine, 0.1 mM acetyl-CoA, 50 mM Tris-HCl pH 8.0, room temperature; feedback inhibition
TgSAT-c = biological target: T3, TgSAT-c (Noccaea goesingensis, UniProt Q6IWF8); type: biochemical
T3 sequence (Q6IWF8 1-311): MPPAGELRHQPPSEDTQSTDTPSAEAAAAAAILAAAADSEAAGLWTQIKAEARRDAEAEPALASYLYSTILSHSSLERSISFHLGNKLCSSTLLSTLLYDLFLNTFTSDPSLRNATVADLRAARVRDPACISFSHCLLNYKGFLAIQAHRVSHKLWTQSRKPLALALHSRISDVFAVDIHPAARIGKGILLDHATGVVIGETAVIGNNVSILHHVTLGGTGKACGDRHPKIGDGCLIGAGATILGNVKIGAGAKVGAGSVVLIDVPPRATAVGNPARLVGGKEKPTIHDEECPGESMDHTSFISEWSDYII

TgSAT-p = biological target: T4, TgSAT-p (Noccaea goesingensis, UniProt Q6IWF9); type: biochemical
T4 sequence (Q6IWF9 1-319): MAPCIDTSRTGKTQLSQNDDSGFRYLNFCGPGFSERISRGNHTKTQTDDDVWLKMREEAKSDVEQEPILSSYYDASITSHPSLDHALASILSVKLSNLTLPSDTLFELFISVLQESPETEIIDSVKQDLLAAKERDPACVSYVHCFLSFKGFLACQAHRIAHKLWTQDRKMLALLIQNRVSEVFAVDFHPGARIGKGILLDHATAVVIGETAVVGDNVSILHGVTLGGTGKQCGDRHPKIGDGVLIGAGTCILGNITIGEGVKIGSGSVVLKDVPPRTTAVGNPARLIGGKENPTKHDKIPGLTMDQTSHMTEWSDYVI

TgSAT-m = biological target: T5, TgSAT-m (Noccaea goesingensis, UniProt Q6IWG0); type: biochemical
T5 sequence (Q6IWG0 1-395): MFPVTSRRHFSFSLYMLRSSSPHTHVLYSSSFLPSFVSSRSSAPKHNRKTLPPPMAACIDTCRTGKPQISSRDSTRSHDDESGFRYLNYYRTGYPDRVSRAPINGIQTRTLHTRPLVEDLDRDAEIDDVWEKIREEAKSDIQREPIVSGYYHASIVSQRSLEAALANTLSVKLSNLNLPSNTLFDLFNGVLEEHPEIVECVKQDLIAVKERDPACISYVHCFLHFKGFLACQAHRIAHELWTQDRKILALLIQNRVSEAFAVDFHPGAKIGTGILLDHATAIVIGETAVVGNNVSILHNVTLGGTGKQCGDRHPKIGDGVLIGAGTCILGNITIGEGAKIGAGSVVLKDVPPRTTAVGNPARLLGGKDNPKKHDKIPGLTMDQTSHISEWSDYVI

At-N/Tg-C = type: biochemical, Arabidopsis thaliana; Noccaea goesingensis; conditions: 1 mM L-serine, 0.1 mM acetyl-CoA, 50 mM Tris-HCl pH 8.0, room temperature; feedback inhibition
AtSAT-c [3] = biological target: T6, AtSAT-c (Arabidopsis thaliana, UniProt Q42538, G270A); type: biochemical
T6 sequence (Q42538 1-312 G270A): T1 sequence (Q42538 1-312 C268P/G270A) with P268C

AtSAT-c [4] = biological target: T7, AtSAT-c (Arabidopsis thaliana, UniProt Q42538, C268P); type: biochemical
T7 sequence (Q42538 1-312 C268P): T1 sequence (Q42538 1-312 C268P/G270A) with A270G

IC50 (AtSAT-c [1]): > 100 µM | IC50 (AtSAT-c [2]): 3.3 µM | IC50 (Tg-N/At-C): 3.4 µM | IC50 (TgSAT-c): > 100 µM | IC50 (TgSAT-p): > 100 µM | IC50 (TgSAT-m): > 100 µM | IC50 (At-N/Tg-C): > 100 µM | IC50 (AtSAT-c [3]): 17.7 µM | IC50 (AtSAT-c [4]): 83.9 µM
SMILES: N[C@@H](CS)C(=O)O [L-Cys]
